Results on one compound are retold here after patent US20080267948A1, “Croos-B Structure Binding Compounds” (priority 2005, published 2008).

Assay [1] deals with T1, tPA/plasminogen (Homo sapiens, UniProt P00750).
T1 construct: purchased Boehringer Ingelheim Actilyse
Put plainly: tPA/plasminogen activation by OVA heated in the presence of compounds (substrate PNAPEP1751). Type of assay: biochemical. To be noted: 25 μg/ml OVA, 25 μg/ml compound, […] DMSO. On the procedure: Heated OVA, either in PBS/1% DMSO (positive control), or in the same buffer in the presence of 1 mg/ml of the compounds, was used 40-fold diluted in the assay. Negative control was buffer without OVA. […] In addition, it was assessed whether the compounds interfere with absorbance readings at 405 nm, with converted chromogenic substrate. […] The yellow solution is divided over wells of an ELISA plate. […] Signals are compared and related to the control.

The target of the next assay is T2, Hb-AGE (Homo sapiens, UniProt P68871+P69905).
T2 construct: purchased Sigma-Aldrich H7379
Description: ELISA binding of tPA to immobilized Hb-AGE after pre-incubation with compounds. To be noted: Hb-AGE first overlayed with compound (concentration series), then tPA. On the procedure: Compounds were now diluted 10× in PBS/0.1% Tween20 (500 μg/ml compound). […] With the selection, similar binding assays are performed with misfolded OVA and Aβ. Finally, concentration series of the selected compounds are used in the binding studies.

Another assay has as its target T3, ovalbumin (Gallus gallus, UniProt P01012).
T3 construct: purchased Sigma A5503
T3 sequence (P01012 1-386): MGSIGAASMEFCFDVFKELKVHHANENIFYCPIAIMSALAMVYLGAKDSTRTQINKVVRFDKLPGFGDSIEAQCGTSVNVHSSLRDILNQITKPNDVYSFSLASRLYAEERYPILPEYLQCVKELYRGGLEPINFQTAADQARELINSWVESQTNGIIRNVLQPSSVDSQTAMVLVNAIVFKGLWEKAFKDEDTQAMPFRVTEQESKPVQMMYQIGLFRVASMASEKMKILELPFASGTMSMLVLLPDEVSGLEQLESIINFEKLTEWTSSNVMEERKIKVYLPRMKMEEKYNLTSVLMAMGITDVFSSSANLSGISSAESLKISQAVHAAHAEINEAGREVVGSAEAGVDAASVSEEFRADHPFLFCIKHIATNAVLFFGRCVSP
Put plainly: Transmission electron microscopy of ovalbumin heated in the presence of small compounds. Details: species or system chicken. To be noted: 1 mg/ml ovalbumin heated with 1 mg/ml compound. Here is the method: For TEM analyses grids were prepared according to standard procedures. Ovalbumin samples at 1 mg/ml were applied to 100-mesh copper grids with carbon coated Formvar (Merck, Germany), and subsequently washed with PBS and H2O. Grids were applied to droplets of 2% (m/v) methylcellulose with 0.4% (m/v) uranylacetate pH 4. After a 2-minutes incubation grids were dried on a filter. Images were recorded at 80 kV, at suitable magnifications on a JEM-1200EX electron microscope (JEOL, Japan).

The target of a further assay is tPA (Homo sapiens, UniProt P00750). Put plainly: tPA serine protease activity with OVA heated in the presence of compounds (substrate S-2765). It counts as biochemical. Details: purchased Boehringer Ingelheim Actilyse. To be noted: OVA heated with 1 mg/ml compound, 80-, 160- or 320-fold diluted, 100 nM tPA. Here is the method:
For this purpose, the influence of the compounds on heat-denaturation of OVA was analyzed (see above: Thioflavin T fluorescence measurements). Heated OVA at 1 mg/ml in PBS in the presence or absence of 1 mg/ml of the twelve compounds listed in Table 7 in PBS/DMSO (final DMSO concentration 1%) was used 80-fold or 160-fold or 320-fold diluted (final heated OVA concentration and compound concentration was 12.5 or 6.3 or 3.1 μg/ml; final DMSO concentration was 0.013% and 0.006% and 0.003%).

The target of assay [2] is T1, tPA/plasminogen. Description: tPA/plasminogen activation by pre-formed misfolded OVA in the presence of compounds. It counts as biochemical. To be noted: 80-fold or 160-fold diluted compound and misfolded OVA stocks of 1 mg/ml. Here is the method:
[…] Negative control was buffer without OVA. […] In addition, it was assessed whether the compounds interfere with absorbance readings at 405 nm, with converted chromogenic substrate. […] The yellow solution is divided over wells of an ELISA plate. […] Signals are compared and related to the control.

A further assay concerns the target T4, heat-denatured ovalbumin (Gallus gallus, UniProt P01012).
T4 construct: purchased Sigma A5503
T4 sequence (P01012 1-386): T3 sequence (P01012 1-386)
Description: Thioflavin T fluorescence of ovalbumin and small compounds. Details: species or system chicken. To be noted: 1 mg/ml compound, 1 mg/ml OVA. On the procedure:
To establish the enhancement of Thioflavin T fluorescence by ovalbumin preparations, 90 μl of 25 μM ThT-solution in 50 mM Glycine buffer (pH 9.0) was added to 10 μl sample in duplicate wells of black 96-wells plates. Heat-denatured ovalbumin at 1 mg/ml in PBS with no addition, DMSO at a final concentration of 1% v/v, or 1 mg/ml of the compounds listed in Table 7, was used. Compound stocks are 100 mg/ml in DMSO. In addition, ovalbumin at 1 mg/ml with the same additions was first heat denatured and subsequently used in the fluorescence assay. Heat denaturation was according to the protocol given above. Fluorescence of duplicates was measured on a Thermo Fluoroskan Ascent 2.5, at 435 nm excitation and 485 nm emission wavelengths.

For the next assay, the target named is T5, amyloid-β(1-40) E22Q (Homo sapiens, UniProt P05067, E693Q).
T5 construct: For similar ELISA's with DOVA and Aβ(1-40) E22Q, 1 μg/ml DOVA or Aβ was coated; purchased Peptide facility, Dutch Cancer Institute, Amsterdam; host or cells: synthetic peptide
Put plainly: ELISA binding of tPA to immobilized Aβ after pre-incubation with compounds. To be noted: Aβ first overlayed with compound (concentration series), then tPA. On the procedure:
Compounds were now diluted 10× in PBS/0.1% Tween20 (500 μg/ml compound). […] With this approach a further selection of the compounds was achieved. Now, compounds that at least interact with HB-AGE are selected. With the selection, similar binding assays are performed with misfolded OVA and Aβ. Finally, concentration series of the selected compounds are used in the binding studies.
A general note: An ELISA detects its analyte on a solid surface through an enzyme-linked reagent.

The next assay relates to human blood platelets. Put plainly: Platelet aggregation (aggregometric assay with washed platelets). It counts as cell-based. Here is the method:
The influence of amyloid-β(1-40) E22Q Dutch type (Aβ) peptide aggregates with cross-β structure conformation on blood platelet aggregation was tested with washed platelets in an aggregometric assay. Freshly drawn human aspirin free blood was mixed gently with citrate buffer to avoid coagulation. Blood was spinned for 15′ at 150*g at 20° C. and supernatant was collected; platelet rich plasma (PRP). […] After spinning down the platelets upon centrifugation for 15′ at 330*g at 20° C., the pellet was resuspended in HEPES-Tyrode buffer pH 6.5. Prostacyclin was added to a final concentration of 10 ng/ml, and the solution was centrifuged for 15′ at 330*g at 20° C., with a soft brake. The pellet was resuspended in HEPES-Tyrode buffer pH 7.2 in a way that the final platelet number was adjusted to 200,000/μl. Platelets were kept at 37° C. for at least 30′, before use in the assays, to ensure that they were in the resting state.
Aggregation of platelets was monitored in an aggregometer (Chrono-Log Corporation, Havertown, Pa., USA) for 15 minutes at 37° C. with a magnet stirring speed of 900 rpm. First, 270 μl of platelet solution was pipetted in the cuvettes and after 1 minute of stirring, 30 μl of preincubated (5 minutes, RT) Aβ and Hematein solution or control was added. The hematein stock was 10 mg/ml in HEPES-Tyrode buffer. The Aβ stock was 1 mg/ml. For blank readings unstirred HEPES Tyrode buffer was used. The aggregation is expressed as the percentage of the light transmission (0-100%). As a positive control, synthetic thrombin receptor activating peptide (TRAP) induced platelet aggregation was used. A control experiment was performed to study the influence of the red colour of hematein on the light transmission. For this, 4 μM TRAP was added at time 1 minute to the platelets, then hematein was added after 6 minutes of aggregation. The platelets were used for not more than 4 hours after isolation to reduce variations in sensitivity amongst subsequent measurements.
Ellagic acid was first dissolved to 100 mg/ml in DMSO, and then further diluted to 1 mg/ml in HBS buffer. Final concentrations of Aβ and ellagic acid in the aggregation assay were 50 μg/ml and 25/50 μg/ml, respectively. In addition, the influence of ellagic acid alone on platelet aggregation was tested. As a control, the influence of 0.08% DMSO on 50 μg/ml Aβ-induced platelet aggregation was analyzed. The 100% DMSO of the ellagic acid stock was diluted 2000 and 4000×, resulting in […] final DMSO concentrations in the aggregation assay.

Entries after “also recorded” stand apart in the source; their conditions may differ.

T1 sequence (P00750 36-562): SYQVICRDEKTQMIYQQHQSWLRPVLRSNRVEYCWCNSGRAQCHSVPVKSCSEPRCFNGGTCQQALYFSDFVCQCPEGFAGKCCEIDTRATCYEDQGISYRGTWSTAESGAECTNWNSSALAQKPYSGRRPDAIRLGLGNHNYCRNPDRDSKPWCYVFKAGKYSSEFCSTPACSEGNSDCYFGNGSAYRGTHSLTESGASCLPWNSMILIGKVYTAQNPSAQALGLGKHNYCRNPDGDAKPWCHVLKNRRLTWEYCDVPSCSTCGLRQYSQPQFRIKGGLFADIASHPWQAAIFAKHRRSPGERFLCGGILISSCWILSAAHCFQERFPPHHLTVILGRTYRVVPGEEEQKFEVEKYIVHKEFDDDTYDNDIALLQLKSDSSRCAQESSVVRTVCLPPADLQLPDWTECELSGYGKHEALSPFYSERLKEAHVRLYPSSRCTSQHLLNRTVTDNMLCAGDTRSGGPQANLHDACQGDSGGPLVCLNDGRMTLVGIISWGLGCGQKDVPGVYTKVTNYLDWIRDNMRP
tPA, sequence (P00750 36-562): as above
T2 sequence (P69905 2-142 limits assumed): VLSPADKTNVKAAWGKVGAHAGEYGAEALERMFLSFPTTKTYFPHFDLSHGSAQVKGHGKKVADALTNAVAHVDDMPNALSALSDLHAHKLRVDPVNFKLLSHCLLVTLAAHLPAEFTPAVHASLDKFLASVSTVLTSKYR
T2 sequence (P68871 2-147 limits assumed): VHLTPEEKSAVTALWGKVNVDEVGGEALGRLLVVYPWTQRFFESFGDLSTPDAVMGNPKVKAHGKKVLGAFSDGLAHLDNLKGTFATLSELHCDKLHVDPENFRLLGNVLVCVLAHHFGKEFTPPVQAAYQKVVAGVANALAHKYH
T5 sequence (P05067 672-711 E693Q): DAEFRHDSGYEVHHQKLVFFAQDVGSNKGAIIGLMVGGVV

With `O=C1C=C2CC3(O)COc4c(ccc(O)c4O)C3=C2C=C1O` (stereo not shown) [compound 152, Hematein], the “influence on tPA/plasminogen activation by OVA pre-heated in the presence of compound” value on tPA/plasminogen [1] is “Inhibition of tPA/plasminogen activation by OVA pre-heated”. Also, the “influence on tPA binding to immobilized Hb-AGE” value at Hb-AGE is on record as “Inhibited tPA binding to immobilized misfolded protein (Hb-”. In addition, the “appearance of ovalbumin heated in the presence of compound on TEM image” value on ovalbumin (listed as Haematein) is “No large aggregates. Small aggregates at a lower”; on ovalbumin (listed as haematein) it was “less OVA aggregates after heating in the presence of the”. Moreover, the “influence on tPA protease activity of OVA heated in the presence of compound” value at tPA was “Potentiation of tPA protease activity”. Further, at tPA/plasminogen [2], the “influence on tPA/plasminogen activation by pre-formed misfolded OVA” value is “Full block of tPA/plasminogen activation by misfolded OVA”. At heat-denatured ovalbumin, the “influence on Thioflavin T fluorescence with misfolded OVA” value is on record as “Inhibition on Thioflavin T fluorescence with misfolded OVA”. Further, on amyloid-β(1-40) E22Q, the “influence on tPA binding to immobilized Aβ” value is recorded as “Stimulated tPA binding to immobilized misfolded protein (Aβ,”. Besides, the “influence on Aβ induced platelet aggregation” value with human blood platelets (100 μg/ml Aβ and 333 μg/ml haematein added together) was “almost completely blocked; also recorded: potent inhibitor of misfolded Aβ-induced platelet aggregation; also recorded: Inhibition of Aβ-induced platelet aggregation”. For the same compound, in the assay on human blood platelets (TRAP and haematein pre-mixed), the “reduction of TRAP-induced platelet aggregation” value is “approximately 10%”.
